Test results published in PubChem BioAssay (NCI).
Several values for one entry are separate records, joined by “and”; a condition that tells them apart may be missing. Identical values can stand only once.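 Exposure lasted 48 hours, with cells grown in 96-well plates and compounds tested at five concentrations. The concentration for 50% growth inhibition is given as GI50. TGI denotes the concentration required for complete inhibition of growth.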

How the values were obtained:
Experiment in all cases: inhibition of tumour cell growth, NCI panel, 48 h
[1] = system: ACHN renal
[2] = system: COLO 205 colon
[3] = system: HOP-62 NSCLC
[4] = system: KM12 colon
[5] = system: OVCAR-4 ovarian
[6] = system: OVCAR-8 ovarian
[7] = system: SK-MEL-5 melanoma
[8] = system: SNB-75 CNS
[9] = system: SW-620 colon
[10] = system: U251 CNS

| Compound | GI50 [1] | TGI [1] | GI50 [2] | TGI [2] | GI50 [3] | TGI [3] | GI50 [4] | TGI [4] | GI50 [5] | TGI [5] | GI50 [6] | TGI [6] | GI50 [7] | TGI [7] | GI50 [8] | TGI [8] | GI50 [9] | TGI [9] | GI50 [10] | TGI [10] |
| --- | --- | --- | --- | --- | --- | --- | --- | --- | --- | --- | --- | --- | --- | --- | --- | --- | --- | --- | --- | --- |
| COc1cc(/C=C/c2ccc3c(Br)cc(Br)c(O)c3n2)ccc1O | 0.891 µM | 12.1 µM | 5.01 µM | 17.2 µM | 1.51 µM | 8.07 µM | 1.41 µM | 13.2 µM | 2.18 µM | 11.6 µM | 2.14 µM | 15.5 µM | 1.47 µM | 10.3 µM | 2.5 µM | 10.1 µM | 2.24 µM | 13 µM | 0.636 µM | 10.9 µM |
| COc1ccc(/C=C(/C)[N+](=O)[O-])cc1OC | 2.18 µM and 1.46 µM | 4.19 µM and 2.82 µM | 1.78 µM and 1.5 µM | 3.28 µM and 3.05 µM | 2.03 µM and 4.17 µM | 4.36 µM and 14.8 µM | 3.66 µM and 2.1 µM | 9.69 µM and 5.79 µM | 1.91 µM and 2.27 µM | 3.88 µM and 4.77 µM | 2.62 µM and 3.22 µM | 8 µM and 10 µM | 1.71 µM and 1.9 µM | 3.09 µM and 3.43 µM | 4.71 µM and 3.76 µM | 18 µM and 13.9 µM | 1.56 µM and 1.1 µM | 3.04 µM and 2.7 µM | 2.3 µM and 1.67 µM | 6.14 µM and 3.14 µM |
| O=C(CN1N=C(c2ccc(F)cc2)CCC1=O)Nc1nc2ccccc2s1 | 4.23 µM | > 100 µM | > 100 µM | > 100 µM |  | > 100 µM | > 25.9 µM | > 100 µM | 2.14 µM |  | 0.788 µM | 4.33 µM | > 93.2 µM | > 100 µM | 17.9 µM | > 100 µM | > 49.5 µM | > 100 µM | 2.08 µM | 4.69 µM |
| CCOc1ccc(NC(=O)CCc2nnc(SC)o2)cc1 |  | > 100 µM |  | > 100 µM |  | > 100 µM |  | > 100 µM |  | > 100 µM |  | > 100 µM |  | > 100 µM |  | > 100 µM |  | > 100 µM |  | > 100 µM |
| COc1cc(C2(C)SCCCS2)cc(OC)c1OC |  | > 100 µM |  | > 100 µM |  | > 100 µM |  | > 100 µM |  | > 100 µM |  | > 100 µM |  | > 100 µM |  | > 100 µM |  | > 100 µM |  | > 100 µM |
| NC1=NC(=O)C(CC(=O)Nc2ccc(Cl)cc2Cl)S1 (stereo not drawn) |  | > 100 µM |  | > 100 µM |  | > 100 µM |  | > 100 µM |  | > 100 µM |  | > 100 µM |  | > 100 µM |  | > 100 µM |  | > 100 µM |  | > 100 µM |
| COc1ccc2c(-c3ccnc(Nc4cccc(OC(F)(F)F)c4)n3)cnn2n1 | 1.8 µM | > 25 µM | 1.3 µM | > 19.9 µM | 1.11 µM | > 15.9 µM | 0.772 µM | 3.95 µM | 3.32 µM | 12.5 µM | 1.84 µM | 10.5 µM | 1.1 µM | 9.56 µM | 0.806 µM | 4.88 µM | 0.856 µM | 4.84 µM | 1.08 µM | 5.18 µM |
| O=C(Cc1nc2ccccc2o1)C(=O)Nc1cccc(C(F)(F)F)c1 |  | > 100 µM |  | > 100 µM |  | > 100 µM |  | > 100 µM |  | > 100 µM |  | > 100 µM |  | > 100 µM |  | > 100 µM |  | > 100 µM |  | > 100 µM |
| c1cc(-c2cn3c(n2)SCC3)ccn1 |  | > 100 µM |  | > 100 µM |  | > 100 µM |  | > 100 µM |  | > 100 µM |  | > 100 µM |  | > 100 µM |  | > 100 µM |  | > 57.7 µM |  | > 100 µM |
| N#CC1(C#N)C(c2ccccc2)C=CC12OCCCO2 (stereo not drawn) |  | > 100 µM |  | 93.6 µM |  | > 100 µM |  | > 100 µM |  | > 100 µM |  | 43 µM |  | > 100 µM |  | > 100 µM |  | > 100 µM |  | > 100 µM |
| COc1ccc(/C=C(\C)[N+](=O)[O-])cc1OC | 1.69 µM | 3.16 µM | 2.23 µM | 4.46 µM | 5.08 µM | 16.4 µM | 4.49 µM | 16.4 µM | 1.97 µM | 4.91 µM | 2.61 µM | 6.29 µM | 2.19 µM | 5.11 µM | 2.2 µM | 12.2 µM | 1.78 µM | 3.8 µM | 4.39 µM | 15.9 µM |
| CCOC(=O)/C(I)=C/c1cc(OC)c(OC)c(OC)c1 |  | 28.2 µM |  | 18.2 µM |  | 96.1 µM |  | 19.2 µM |  | 52.4 µM |  | 38.8 µM |  | 24.5 µM |  | > 100 µM |  | 11.6 µM |  | 18.3 µM |
| Fc1cccc(F)c1C(Nc1nncs1)Nc1nncs1 |  | > 100 µM |  | > 100 µM |  | > 100 µM |  | > 100 µM |  | > 100 µM |  | > 100 µM |  | > 100 µM |  | > 100 µM |  | > 100 µM |  | > 100 µM |
| COc1cccc(Oc2ccccc2NC(=O)CNC(=O)c2cccc3ccccc23)c1 | 0.398 µM | > 25 µM | 0.283 µM | 0.949 µM | 0.302 µM | > 25 µM | 0.19 µM | 19.6 µM | 0.77 µM | > 25 µM | 0.684 µM | > 25 µM | 0.216 µM | 3.65 µM | 0.128 µM | > 25 µM | 0.164 µM | > 25 µM | 0.242 µM | > 25 µM |
| CCOC(=O)c1cc2c(cc1Cl)SC(=Nc1ccccc1)N(S(=O)(=O)c1ccc(Br)s1)S2(=O)=O | 14.4 µM | 27.5 µM | 25.2 µM | > 100 µM | 23.3 µM | 44.2 µM | 17.6 µM | 33.3 µM | 23.4 µM | 59.8 µM | 17 µM | 39.3 µM | 12.1 µM | 25.2 µM | 23.4 µM | 60.8 µM | 16.6 µM | 34.3 µM | 11.7 µM | 25.8 µM |
| CCc1c(C)nc2sc3c(N)ncnc3c2c1C | > 25 µM | > 25 µM | > 25 µM | > 25 µM | > 25 µM | > 25 µM | > 25 µM | > 25 µM | > 25 µM | > 25 µM | > 25 µM | > 25 µM | > 25 µM | > 25 µM | > 25 µM | > 25 µM | > 25 µM | > 25 µM | > 25 µM | > 25 µM |
